# Results: ChEMBL document CHEMBL5038625, “Application of the dual-tail approach for the design and synthesis of novel Thiopyrimidine-Benzenesulfonamide hybrids as selective carbonic anhydrase inhibitors” (Eur J Med Chem, 2022)
# Experiments:
# SN12C = assay: Antiproliferative activity against human SN12C cells assessed as cell growth inhibition at 10 uM incubated for 24 hrs by sulforhodamine B assay; format: functional; conditions: read-out: GI
# UACC-62 = assay: Antiproliferative activity against human UACC-62 cells assessed as cell growth inhibition at 10 uM incubated for 24 hrs by sulforhodamine B assay; format: functional; conditions: read-out: GI
# SF-295 = assay: Antiproliferative activity against human SF-295 cells assessed as cell growth inhibition at 10 uM incubated for 24 hrs by sulforhodamine B assay; format: functional; conditions: read-out: GI
# SR = assay: Antiproliferative activity against human SR cells assessed as cell growth inhibition at 10 uM incubated for 24 hrs by sulforhodamine B assay; format: functional; conditions: read-out: GI
# KM12 = assay: Antiproliferative activity against human KM12 cells assessed as cell growth inhibition at 10 uM incubated for 24 hrs by sulforhodamine B assay; format: functional; conditions: read-out: GI
# A549 = assay: Antiproliferative activity against human A549 cells assessed as cell growth inhibition at 10 uM incubated for 24 hrs by sulforhodamine B assay; format: functional; conditions: read-out: GI
# HOP-62 = assay: Antiproliferative activity against human HOP-62 cells assessed as cell growth inhibition at 10 uM incubated for 24 hrs by sulforhodamine B assay; format: functional; conditions: read-out: GI
# MCF7 [1] = assay: Antiproliferative activity against human MCF7 cells assessed as cell growth inhibition at 10 uM incubated for 24 hrs by sulforhodamine B assay; format: functional; conditions: read-out: GI
# DU-145 = assay: Antiproliferative activity against human DU-145 cells assessed as cell growth inhibition at 10 uM incubated for 24 hrs by sulforhodamine B assay; format: functional; conditions: read-out: GI
# NCI-H23 = assay: Antiproliferative activity against human NCI-H23 cells assessed as cell growth inhibition at 10 uM incubated for 24 hrs by sulforhodamine B assay; format: functional; conditions: read-out: GI
# ACHN = assay: Antiproliferative activity against human ACHN cells assessed as cell growth inhibition at 10 uM incubated for 24 hrs by sulforhodamine B assay; format: functional; conditions: read-out: GI
# 786-0 = assay: Antiproliferative activity against human 786-0 cells assessed as cell growth inhibition at 10 uM incubated for 24 hrs by sulforhodamine B assay; format: functional; conditions: read-out: GI
# IGROV-1 = assay: Antiproliferative activity against human IGROV-1 cells assessed as cell growth inhibition at 10 uM incubated for 24 hrs by sulforhodamine B assay; format: functional; conditions: read-out: GI
# CCRF-CEM = assay: Antiproliferative activity against human CCRF-CEM cells assessed as cell growth inhibition at 10 uM incubated for 24 hrs by sulforhodamine B assay; format: functional; conditions: read-out: GI
# HOP-92 = assay: Antiproliferative activity against human HOP-92 cells assessed as cell growth inhibition at 10 uM incubated for 24 hrs by sulforhodamine B assay; format: functional; conditions: read-out: GI
# SF-539 = assay: Antiproliferative activity against human SF-539 cells assessed as cell growth inhibition at 10 uM incubated for 24 hrs by sulforhodamine B assay; format: functional; conditions: read-out: GI
# OVCAR-3 = assay: Antiproliferative activity against human OVCAR-3 cells assessed as cell growth inhibition at 10 uM incubated for 24 hrs by sulforhodamine B assay; format: functional; conditions: read-out: GI
# K562 = assay: Antiproliferative activity against human K562 cells assessed as cell growth inhibition at 10 uM incubated for 24 hrs by sulforhodamine B assay; format: functional; conditions: read-out: GI
# SF-268 = assay: Antiproliferative activity against human SF-268 cells assessed as cell growth inhibition at 10 uM incubated for 24 hrs by sulforhodamine B assay; format: functional; conditions: read-out: GI
# T47D [2] = assay: Antiproliferative activity against human T47D cells assessed as reduction in cell viability incubated for 24 hrs by sulforhodamine B assay; format: functional, cell-based
# SNB-75 = assay: Antiproliferative activity against human SNB-75 cells assessed as cell growth inhibition at 10 uM incubated for 24 hrs by sulforhodamine B assay; format: functional; conditions: read-out: GI
# Carbonic anhydrase 9 = Carbonic anhydrase 9 (Homo sapiens, UniProt Q16790); assay: Inhibition of human CA9 preincubated for 15 mins by phenol red dye based stopped flow CO2 hydration assay
# HCT-15 = assay: Antiproliferative activity against human HCT-15 cells assessed as cell growth inhibition at 10 uM incubated for 24 hrs by sulforhodamine B assay; format: functional; conditions: read-out: GI
# M14 = assay: Antiproliferative activity against human M14 cells assessed as cell growth inhibition at 10 uM incubated for 24 hrs by sulforhodamine B assay; format: functional; conditions: read-out: GI
# TK-10 = assay: Antiproliferative activity against human TK-10 cells assessed as cell growth inhibition at 10 uM incubated for 24 hrs by sulforhodamine B assay; format: functional; conditions: read-out: GI
# MDA-MB-435 = assay: Antiproliferative activity against human MDA-MB-435 cells assessed as cell growth inhibition at 10 uM incubated for 24 hrs by sulforhodamine B assay; format: functional; conditions: read-out: GI
# MDA-MB-231 [3] = assay: Antiproliferative activity against human MDA-MB-231 cells assessed as cell growth inhibition at 10 uM incubated for 24 hrs by sulforhodamine B assay; format: functional; conditions: read-out: GI
# MCF7 [4] = assay: Antiproliferative activity against human MCF7 cells assessed as reduction in cell viability incubated for 24 hrs by sulforhodamine B assay; format: functional, cell-based; conditions: MCF7, 24 h
# SW-620 = assay: Antiproliferative activity against human SW-620 cells assessed as cell growth inhibition at 10 uM incubated for 24 hrs by sulforhodamine B assay; format: functional; conditions: read-out: GI
# SNB-19 = assay: Antiproliferative activity against human SNB-19 cells assessed as cell growth inhibition at 10 uM incubated for 24 hrs by sulforhodamine B assay; format: functional; conditions: read-out: GI
# BT-549 = assay: Antiproliferative activity against human BT-549 cells assessed as cell growth inhibition at 10 uM incubated for 24 hrs by sulforhodamine B assay; format: functional; conditions: read-out: GI
# MDA-MB-231 [5] = assay: Antiproliferative activity against human MDA-MB-231 cells assessed as reduction in cell viability incubated for 24 hrs by sulforhodamine B assay; format: functional, cell-based; conditions: MDA-MB-231, 24 h
# HCT-116 = assay: Antiproliferative activity against human HCT-116 cells assessed as cell growth inhibition at 10 uM incubated for 24 hrs by sulforhodamine B assay; format: functional; conditions: read-out: GI
# HT-29 = assay: Antiproliferative activity against human HT-29 cells assessed as cell growth inhibition at 10 uM incubated for 24 hrs by sulforhodamine B assay; format: functional; conditions: read-out: GI
# MOLT-4 = assay: Antiproliferative activity against human MOLT-4 cells assessed as cell growth inhibition at 10 uM incubated for 24 hrs by sulforhodamine B assay; format: functional; conditions: read-out: GI
# Malme-3M = assay: Antiproliferative activity against human Malme-3M cells assessed as cell growth inhibition at 10 uM incubated for 24 hrs by sulforhodamine B assay; format: functional; conditions: read-out: GI
# NCI/ADR-RES = assay: Antiproliferative activity against human NCI-ADR-RES cells assessed as cell growth inhibition at 10 uM incubated for 24 hrs by sulforhodamine B assay; format: functional; conditions: read-out: GI
# LOX IMVI = assay: Antiproliferative activity against human LOX IMVI cells assessed as cell growth inhibition at 10 uM incubated for 24 hrs by sulforhodamine B assay; format: functional; conditions: read-out: GI
# NCI-H460 = assay: Antiproliferative activity against human NCI-H460 cells assessed as cell growth inhibition at 10 uM incubated for 24 hrs by sulforhodamine B assay; format: functional; conditions: read-out: GI
# NCI-H522 = assay: Antiproliferative activity against human NCI-H522 cells assessed as cell growth inhibition at 10 uM incubated for 24 hrs by sulforhodamine B assay; format: functional; conditions: read-out: GI
# OVCAR-8 = assay: Antiproliferative activity against human OVCAR-8 cells assessed as cell growth inhibition at 10 uM incubated for 24 hrs by sulforhodamine B assay; format: functional; conditions: read-out: GI
# SK-MEL-5 = assay: Antiproliferative activity against human SK-MEL-5 cells assessed as cell growth inhibition at 10 uM incubated for 24 hrs by sulforhodamine B assay; format: functional; conditions: read-out: GI
# SK-MEL-28 = assay: Antiproliferative activity against human SK-MEL-28 cells assessed as cell growth inhibition at 10 uM incubated for 24 hrs by sulforhodamine B assay; format: functional; conditions: read-out: GI
# OVCAR-4 = assay: Antiproliferative activity against human OVCAR-4 cells assessed as cell growth inhibition at 10 uM incubated for 24 hrs by sulforhodamine B assay; format: functional; conditions: read-out: GI
# PC-3 = assay: Antiproliferative activity against human PC-3 cells assessed as cell growth inhibition at 10 uM incubated for 24 hrs by sulforhodamine B assay; format: functional; conditions: read-out: GI
# UO-31 = assay: Antiproliferative activity against human UO-31 cells assessed as cell growth inhibition at 10 uM incubated for 24 hrs by sulforhodamine B assay; format: functional; conditions: read-out: GI
# RPMI-8226 = assay: Antiproliferative activity against human RPMI-8226 cells assessed as cell growth inhibition at 10 uM incubated for 24 hrs by sulforhodamine B assay; format: functional; conditions: read-out: GI
# T47D [6] = assay: Antiproliferative activity against human T47D cells assessed as cell growth inhibition at 10 uM incubated for 24 hrs by sulforhodamine B assay; format: functional; conditions: read-out: GI
# RXF 393 = assay: Antiproliferative activity against human RXF 393 cells assessed as cell growth inhibition at 10 uM incubated for 24 hrs by sulforhodamine B assay; format: functional; conditions: read-out: GI
# U-251 = assay: Antiproliferative activity against human U-251 cells assessed as cell growth inhibition at 10 uM incubated for 24 hrs by sulforhodamine B assay; format: functional; conditions: read-out: GI
# CAKI-1 = assay: Antiproliferative activity against human CAKI-1 cells assessed as cell growth inhibition at 10 uM incubated for 24 hrs by sulforhodamine B assay; format: functional; conditions: read-out: GI
# NCI-H226 = assay: Antiproliferative activity against human NCI-H226 cells assessed as cell growth inhibition at 10 uM incubated for 24 hrs by sulforhodamine B assay; format: functional; conditions: read-out: GI
smiles,measurement,setting,value
Cc1ccc(-c2nc(SCC(=O)c3ccccc3)nc(Nc3ccc(S(N)(=O)=O)cc3)c2C#N)cc1,inhibition of growth at 10 µM,SN12C,37%
same,inhibition of growth at 10 µM,UACC-62,19.7%
same,inhibition of growth at 10 µM,SF-295,63.3%
same,inhibition of growth at 10 µM,SR,43.1%
same,inhibition of growth at 10 µM,KM12,27.2%
same,inhibition of growth at 10 µM,A549,12.6%
same,inhibition of growth at 10 µM,HOP-62,73.8%
same,inhibition of growth at 10 µM,MCF7 [1],34.9%
same,inhibition of growth at 10 µM,DU-145,39.3%
same,inhibition of growth at 10 µM,NCI-H23,65.5%
same,inhibition of growth at 10 µM,ACHN,10.3%
same,inhibition of growth at 10 µM,786-0,53.7%
same,inhibition of growth at 10 µM,IGROV-1,13.7%
same,inhibition of growth at 10 µM,CCRF-CEM,18%
same,inhibition of growth at 10 µM,HOP-92,62.4%
same,inhibition of growth at 10 µM,SF-539,81.7%
same,inhibition of growth at 10 µM,OVCAR-3,96%
same,inhibition of growth at 10 µM,K562,29.9%
same,inhibition of growth at 10 µM,SF-268,23.3%
same,IC50,T47D [2],> 100 µM
same,inhibition of growth at 10 µM,SNB-75,20%
same,Ki,Carbonic anhydrase 9,0.0074 µM
same,inhibition of growth at 10 µM,HCT-15,27.9%
same,inhibition of growth at 10 µM,M14,63.3%
same,inhibition of growth at 10 µM,TK-10,32.5%
same,inhibition of growth at 10 µM,MDA-MB-435,53%
same,inhibition of growth at 10 µM,MDA-MB-231 [3],67%
same,IC50,MCF7 [4],> 100 µM
same,inhibition of growth at 10 µM,SW-620,16.2%
same,inhibition of growth at 10 µM,SNB-19,22.8%
same,inhibition of growth at 10 µM,BT-549,26.2%
same,IC50,MDA-MB-231 [5],> 100 µM
same,inhibition of growth at 10 µM,HCT-116,64.1%
same,inhibition of growth at 10 µM,HT-29,7.65%
same,inhibition of growth at 10 µM,MOLT-4,13.4%
same,inhibition of growth at 10 µM,Malme-3M,66.4%
same,inhibition of growth at 10 µM,NCI/ADR-RES,18.3%
same,inhibition of growth at 10 µM,LOX IMVI,84.5%
same,inhibition of growth at 10 µM,NCI-H460,34.8%
same,inhibition of growth at 10 µM,NCI-H522,12.9%
same,inhibition of growth at 10 µM,OVCAR-8,65.4%
same,inhibition of growth at 10 µM,SK-MEL-5,24.5%
same,inhibition of growth at 10 µM,SK-MEL-28,18.9%
same,inhibition of growth at 10 µM,OVCAR-4,75.7%
same,inhibition of growth at 10 µM,PC-3,7.4%
same,inhibition of growth at 10 µM,UO-31,25.1%
same,inhibition of growth at 10 µM,RPMI-8226,34.6%
same,inhibition of growth at 10 µM,T47D [6],16.1%
same,inhibition of growth at 10 µM,RXF 393,48.2%
same,inhibition of growth at 10 µM,U-251,52.6%
same,inhibition of growth at 10 µM,CAKI-1,48.5%
same,inhibition of growth at 10 µM,NCI-H226,28.6%
